Values quoted from earlier work, collected in patent US6428772B1, “Acne treatment composition with cooling effect” (Blistex Inc., priority 2001, dated 2002).
Like-named read-outs stand apart in the source and are kept apart here.

Experiments:
[1] = not given; remark: listed apart in the source
[2] = test system: histamine induced itching; conditions: Neuroscience Letters 1995, 187:3, pp. 157-160

pH of the solution produced (1 gram in about 460 ml of water)	volume of water dissolving 1 gram (1 gram, water, room temperature)	solubility in water (water, room temperature)	volume of alcohol dissolving 1 gram ([1]; 1 gram)	Compound	solubility in water (water)	solubility in alcohol [1]	effect on histamine induced itching [2]
				O=C(OOC(=O)c1ccccc1)c1ccccc1 [Benzoyl peroxide, benzoyl peroxide]	sparingly soluble	sparingly soluble	
2.4	about 460 ml	about 0.2 % by weight	about 2.7 ml	O=C(O)c1ccccc1O [Salicylic acid, salicylic acid]	sparingly soluble		
				CC1CCC(C(C)C)C(O)C1 (centres unmarked) [menthol]			effective
